The text below walks through data of ChEMBL document CHEMBL1201862, “PubChem BioAssay data set” (2004).

Active and inactive are the calls of the source.

One data set relates to HeLa. The experiment in a line: Cytotoxicity counterscreen assay for transcriptional activators of heat shock protein 70 (Hsp70). [Related pubchem assays: 1203, 1252 ]. In kind it is functional. Conditions: Homo sapiens.
A further data set concerns the target Cytochrome P450 3A4 (Homo sapiens, UniProt P08684).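 Further: CYP3A4 tested as one member of a cytochrome P450 panel screen.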
The next data set deals with T1, Cytochrome P450 1A2 (Homo sapiens, UniProt P05177).
T1 sequence (P05177 whole entry): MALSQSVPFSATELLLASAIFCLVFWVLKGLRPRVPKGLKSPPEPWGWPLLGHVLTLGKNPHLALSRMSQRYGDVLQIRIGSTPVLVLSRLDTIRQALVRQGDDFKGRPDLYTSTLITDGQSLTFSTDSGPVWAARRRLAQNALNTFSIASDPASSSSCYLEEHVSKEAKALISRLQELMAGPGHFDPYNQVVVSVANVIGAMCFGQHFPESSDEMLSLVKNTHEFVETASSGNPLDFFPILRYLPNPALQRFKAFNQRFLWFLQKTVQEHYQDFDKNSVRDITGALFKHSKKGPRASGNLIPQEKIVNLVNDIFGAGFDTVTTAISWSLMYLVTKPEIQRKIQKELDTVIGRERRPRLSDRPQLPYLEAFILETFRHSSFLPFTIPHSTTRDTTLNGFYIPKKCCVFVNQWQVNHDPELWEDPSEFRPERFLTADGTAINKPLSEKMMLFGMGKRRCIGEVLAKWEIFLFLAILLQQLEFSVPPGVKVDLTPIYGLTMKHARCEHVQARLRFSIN

The target of a further data set is Cytochrome P450 2C19 (Homo sapiens, UniProt P33261). Nature of the data set: Cytochrome panel assay with activity outcomes. Panel member name: p450-cyp2c19 Compounds with AC50 equal or less than 10 uM are considered active. The settings on record: read-out: AC50. Type of data set: functional.
Data set [1] concerns the target T2, Mannose-6-phosphate isomerase (Homo sapiens, UniProt P34949).
T2 sequence (P34949 whole entry): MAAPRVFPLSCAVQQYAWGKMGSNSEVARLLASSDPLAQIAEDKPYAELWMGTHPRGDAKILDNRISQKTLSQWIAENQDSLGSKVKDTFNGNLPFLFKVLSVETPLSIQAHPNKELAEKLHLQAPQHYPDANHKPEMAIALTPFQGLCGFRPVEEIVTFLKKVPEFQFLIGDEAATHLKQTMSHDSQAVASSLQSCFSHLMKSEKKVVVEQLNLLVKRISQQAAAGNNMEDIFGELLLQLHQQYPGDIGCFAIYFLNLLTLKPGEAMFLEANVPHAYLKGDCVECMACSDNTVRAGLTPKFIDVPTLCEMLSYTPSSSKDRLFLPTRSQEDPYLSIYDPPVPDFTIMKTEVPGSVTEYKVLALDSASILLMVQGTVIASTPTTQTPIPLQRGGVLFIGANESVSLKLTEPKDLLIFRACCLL
The experiment in a line: MPI enzyme activity inhibition – biochemical, fluorescence intensity, coupled assay, primary screen (AID 1209).

Another data set has as its target T3, Leucine aminopeptidase (Plasmodium falciparum 3D7, UniProt Q8IL11).
T3 sequence (Q8IL11 whole entry): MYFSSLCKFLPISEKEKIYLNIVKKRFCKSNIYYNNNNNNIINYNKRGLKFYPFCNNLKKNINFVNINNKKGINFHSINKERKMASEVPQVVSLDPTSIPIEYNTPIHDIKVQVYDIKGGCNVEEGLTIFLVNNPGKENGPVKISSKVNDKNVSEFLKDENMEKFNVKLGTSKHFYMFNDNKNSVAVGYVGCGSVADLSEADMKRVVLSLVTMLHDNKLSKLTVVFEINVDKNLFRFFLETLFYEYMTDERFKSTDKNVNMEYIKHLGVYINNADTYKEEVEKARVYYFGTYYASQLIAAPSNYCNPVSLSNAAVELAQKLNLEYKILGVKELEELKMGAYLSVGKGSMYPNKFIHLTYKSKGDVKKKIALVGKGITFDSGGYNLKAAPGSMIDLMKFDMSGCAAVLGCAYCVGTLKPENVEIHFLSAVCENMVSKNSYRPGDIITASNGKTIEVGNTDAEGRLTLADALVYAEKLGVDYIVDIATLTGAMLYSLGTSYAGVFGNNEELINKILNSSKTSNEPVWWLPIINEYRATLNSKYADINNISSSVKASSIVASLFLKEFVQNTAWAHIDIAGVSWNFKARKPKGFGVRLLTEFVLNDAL
The experiment in a line: P. falciparum M17LAP inhibitors, primary screen, biochemical, fluorogenic H-Leu-NHMec substrate, 1536-well (AID 1619). Type of data set: functional.

Data set [2] has as its target Lytic switch protein BZLF1 (Epstein-Barr virus (strain B95-8) (HHV-4) (Human herpesvirus 4), UniProt P03206). The experiment in a line: inhibition of BZLF1 ZTA DNA binding – biochemical, fluorescence polarization, Epstein-Barr virus, 1536-well, counter-screen for EBNA-1 inhibitor project, dose response (AID 2377).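 Further: fluorescence polarization of Cy5-labelled ZRE DNA probe bound by purified Zta.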 On the set-up: species or system human gammaherpesvirus 4.

Another data set addresses Cytochrome P450 2C9 (Homo sapiens, UniProt P11712).
Data set [3] concerns the target Epstein-Barr nuclear antigen 1 (Epstein-Barr virus (strain B95-8) (HHV-4) (Human herpesvirus 4), UniProt P03211). Nature of the data set: inhibition of EBV nuclear antigen 1 DNA binding – biochemical, fluorescence polarization, 1536-well, dose response (AID 2381).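 Further: fluorescence polarization of a Cy5 DNA probe bound by EBNA-1 protein.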 Also noted: species or system human gammaherpesvirus 4. In general terms: Polarisation of emitted light reports the rotation of a fluorescent probe.

In data set [4] the target is T4, Ubiquitin-conjugating enzyme E2 N (Homo sapiens, UniProt P61088).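 Further: Dose-response confirmation in a TR-FRET assay detecting UBC13-driven polyubiquitin chain formation, inhibition measured.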
T4 sequence (P61088 whole entry): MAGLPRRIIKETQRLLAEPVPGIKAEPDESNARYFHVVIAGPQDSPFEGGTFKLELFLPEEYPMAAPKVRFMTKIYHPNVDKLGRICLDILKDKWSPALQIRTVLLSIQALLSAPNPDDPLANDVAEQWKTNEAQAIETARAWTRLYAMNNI
Type of data set: functional.

The next data set concerns Streptococcus. The experiment in a line: GAS UMAA2166 growth inhibition – luminescence, BacTiterGlo, counter-screen for streptokinase expression inhibitor project, dose response (AID 1915).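 Further: potency for reduction of bacterial viability or growth.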 In kind it is functional, organism-based. On the technique in general: The purpose of a counterscreen is to sort out artefacts and off-target activity.
Data set [5] in a line: viability loss of HPDE-C7K cells – cell-based, fluorescence, HTS, primary screen (AID 431). In kind it is functional. The settings on record: Homo sapiens.
Data set [6] deals with Disintegrin and metalloproteinase domain-containing protein 17 (Homo sapiens, UniProt P78536). Nature of the data set: inhibition of ADAM17 substrate cleavage – biochemical, quenched FRET substrate, counter-screen for ADAM10 exosite inhibitor project, dose response (AID 743253).
A further data set addresses T5, Streptokinase A (Streptococcus pyogenes serotype M1, UniProt P10520).
T5 sequence (P10520 whole entry): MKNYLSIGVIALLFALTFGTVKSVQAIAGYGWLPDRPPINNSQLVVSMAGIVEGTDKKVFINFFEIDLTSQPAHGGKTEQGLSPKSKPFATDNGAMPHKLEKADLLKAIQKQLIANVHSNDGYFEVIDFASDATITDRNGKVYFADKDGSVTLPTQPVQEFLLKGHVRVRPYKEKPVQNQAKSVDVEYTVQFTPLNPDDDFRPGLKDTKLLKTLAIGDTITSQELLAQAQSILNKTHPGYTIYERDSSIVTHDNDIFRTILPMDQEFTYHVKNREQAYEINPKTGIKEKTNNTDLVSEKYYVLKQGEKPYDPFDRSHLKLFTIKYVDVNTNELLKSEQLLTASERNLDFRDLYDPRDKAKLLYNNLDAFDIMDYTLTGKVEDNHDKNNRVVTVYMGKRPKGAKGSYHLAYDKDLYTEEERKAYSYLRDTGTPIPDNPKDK
The experiment in a line: viability-normalized secreted streptokinase activity reduction – plasminogen activation absorbance, OD405, dose response (AID 1914).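 Further: secreted streptokinase activity via plasminogen activation per viability signal from cell pellet.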 Type of data set: functional, Streptococcus pyogenes M1 GAS.

The target in data set [7] is T6, Calpain-2 catalytic subunit (Sus scrofa, UniProt P43367).
T6 sequence (P43367 whole entry): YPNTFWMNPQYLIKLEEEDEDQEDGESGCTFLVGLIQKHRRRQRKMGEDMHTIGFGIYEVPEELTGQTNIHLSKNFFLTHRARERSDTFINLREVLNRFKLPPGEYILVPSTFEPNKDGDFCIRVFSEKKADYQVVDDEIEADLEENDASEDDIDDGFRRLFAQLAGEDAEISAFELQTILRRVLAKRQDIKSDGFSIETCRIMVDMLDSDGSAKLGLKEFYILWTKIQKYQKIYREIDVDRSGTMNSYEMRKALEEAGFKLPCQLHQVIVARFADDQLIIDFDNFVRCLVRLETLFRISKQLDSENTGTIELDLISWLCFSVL
Nature of the data set: m-calpain protease blockers, concentration series – biochemical, fluorogenic peptide substrate, dose response (AID 1420). In kind it is functional.

Data set [8] is described as follows: HPDE-C7 pancreatic duct cell viability loss – fluorescence, HTS (AID 430). In kind it is functional, cell-based. Conditions: Homo sapiens.
Data set [9] deals with Heat shock protein HSP 90-alpha (Homo sapiens, UniProt P07900). Type of data set: functional, organism-based.
The test system of data set [10] is Streptococcus sp. 'group A'. The experiment in a line: Streptococcus pyogenes SK(-)GAS viability under kanamycin – luminescence, BacTiterGlo, confirmation, counter-screen for streptokinase expression inhibitor project, dose response (AID 1900). In kind it is functional, organism-based.
Data set [11] has as its target Long-chain-fatty-acid--AMP ligase FadD28 (Mycobacterium tuberculosis, UniProt P9WQ59). Nature of the data set: Fluorescence polarization aasay to screen for inhibitors that compete for the binding of FadD28 to a bisubstrate Measured in Biochemical System Using Plate Reader - 2147-01_Inhibitor_Dose_CherryPick_Activity. Type of data set: functional, Mycobacterium tuberculosis H37Rv.

Data set [12] has as its target FAD-linked sulfhydryl oxidase ALR (Homo sapiens, UniProt P55789). The experiment in a line: ALR-catalysed DTT oxidation blockers – biochemical, H2O2 detection, luminescence, cherry-pick, dose response (AID 493248).
Data set [13] is described as follows: mitochondrial function rescue without frataxin homolog – Friedreich's ataxia, plus single-dose screen, dose response (AID 1465).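 Further: yeast depleted of Yfh1p frataxin homolog grown on glycerol needing respiration; WST-1 tetrazolium dye reduction as measure of cellular dehydrogenase metabolic activity.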 In kind it is functional.
The target in data set [14] is T7, Corticotropin-releasing factor receptor 2/Corticotropin-releasing factor-binding protein (Homo sapiens, UniProt P24387+Q13324).
T7 sequence (Q13324 whole entry): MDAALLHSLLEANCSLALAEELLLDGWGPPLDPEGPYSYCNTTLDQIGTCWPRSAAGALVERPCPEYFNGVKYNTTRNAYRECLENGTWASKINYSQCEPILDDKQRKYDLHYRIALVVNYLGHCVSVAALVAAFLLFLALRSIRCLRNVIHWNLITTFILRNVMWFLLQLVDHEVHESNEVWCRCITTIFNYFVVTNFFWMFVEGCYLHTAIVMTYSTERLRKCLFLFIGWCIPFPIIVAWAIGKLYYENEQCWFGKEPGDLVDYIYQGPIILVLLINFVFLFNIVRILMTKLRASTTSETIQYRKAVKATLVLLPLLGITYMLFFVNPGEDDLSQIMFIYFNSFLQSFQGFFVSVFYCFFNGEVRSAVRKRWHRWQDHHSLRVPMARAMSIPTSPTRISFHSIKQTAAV
T7 sequence (P24387 whole entry): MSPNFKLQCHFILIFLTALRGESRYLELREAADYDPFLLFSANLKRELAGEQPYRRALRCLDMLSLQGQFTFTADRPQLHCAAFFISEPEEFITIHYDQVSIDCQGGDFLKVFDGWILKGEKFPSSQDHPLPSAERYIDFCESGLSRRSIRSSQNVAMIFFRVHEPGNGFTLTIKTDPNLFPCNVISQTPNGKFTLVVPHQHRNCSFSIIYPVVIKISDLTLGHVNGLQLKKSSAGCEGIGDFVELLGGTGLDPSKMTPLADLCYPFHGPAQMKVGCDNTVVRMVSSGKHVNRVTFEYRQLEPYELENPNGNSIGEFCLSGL
Nature of the data set: activators of CRF receptor 2 with binding protein – uHTS hits, confirmation (AID 602473). The settings on record: read-out: EC50_Mean. Type of data set: functional.
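Wherever CC50 is given: cells exposed to compound for 16 hours before readout.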

Chain of Cytochrome P450 2C19 (P33261 whole entry): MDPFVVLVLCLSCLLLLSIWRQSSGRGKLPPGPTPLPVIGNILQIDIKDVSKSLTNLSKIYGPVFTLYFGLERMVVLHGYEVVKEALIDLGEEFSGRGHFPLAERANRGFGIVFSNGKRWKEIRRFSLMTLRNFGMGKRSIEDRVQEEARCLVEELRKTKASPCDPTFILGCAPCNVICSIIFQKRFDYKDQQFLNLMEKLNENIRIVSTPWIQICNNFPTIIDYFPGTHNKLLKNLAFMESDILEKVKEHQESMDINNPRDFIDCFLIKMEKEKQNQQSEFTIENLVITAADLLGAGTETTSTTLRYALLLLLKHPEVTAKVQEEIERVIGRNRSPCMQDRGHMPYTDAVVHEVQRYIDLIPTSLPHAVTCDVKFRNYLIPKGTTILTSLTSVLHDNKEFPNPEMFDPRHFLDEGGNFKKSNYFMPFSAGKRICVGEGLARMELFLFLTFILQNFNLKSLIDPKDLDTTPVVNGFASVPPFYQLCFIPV
Chain of Cytochrome P450 3A4 (P08684 whole entry): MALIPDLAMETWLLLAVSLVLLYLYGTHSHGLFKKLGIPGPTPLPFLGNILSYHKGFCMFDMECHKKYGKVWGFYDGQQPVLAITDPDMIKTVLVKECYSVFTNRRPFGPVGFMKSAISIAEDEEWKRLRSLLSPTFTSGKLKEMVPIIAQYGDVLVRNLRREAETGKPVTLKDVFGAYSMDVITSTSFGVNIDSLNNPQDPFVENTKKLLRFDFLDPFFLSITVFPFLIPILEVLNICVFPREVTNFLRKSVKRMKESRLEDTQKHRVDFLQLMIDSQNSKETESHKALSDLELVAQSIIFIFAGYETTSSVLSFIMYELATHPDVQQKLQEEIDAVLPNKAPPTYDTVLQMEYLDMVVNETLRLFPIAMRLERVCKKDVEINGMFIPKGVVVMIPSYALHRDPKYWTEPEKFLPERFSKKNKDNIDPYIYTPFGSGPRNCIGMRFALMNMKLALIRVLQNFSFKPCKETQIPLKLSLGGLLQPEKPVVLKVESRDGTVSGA
Chain of Epstein-Barr nuclear antigen 1 (P03211 whole entry): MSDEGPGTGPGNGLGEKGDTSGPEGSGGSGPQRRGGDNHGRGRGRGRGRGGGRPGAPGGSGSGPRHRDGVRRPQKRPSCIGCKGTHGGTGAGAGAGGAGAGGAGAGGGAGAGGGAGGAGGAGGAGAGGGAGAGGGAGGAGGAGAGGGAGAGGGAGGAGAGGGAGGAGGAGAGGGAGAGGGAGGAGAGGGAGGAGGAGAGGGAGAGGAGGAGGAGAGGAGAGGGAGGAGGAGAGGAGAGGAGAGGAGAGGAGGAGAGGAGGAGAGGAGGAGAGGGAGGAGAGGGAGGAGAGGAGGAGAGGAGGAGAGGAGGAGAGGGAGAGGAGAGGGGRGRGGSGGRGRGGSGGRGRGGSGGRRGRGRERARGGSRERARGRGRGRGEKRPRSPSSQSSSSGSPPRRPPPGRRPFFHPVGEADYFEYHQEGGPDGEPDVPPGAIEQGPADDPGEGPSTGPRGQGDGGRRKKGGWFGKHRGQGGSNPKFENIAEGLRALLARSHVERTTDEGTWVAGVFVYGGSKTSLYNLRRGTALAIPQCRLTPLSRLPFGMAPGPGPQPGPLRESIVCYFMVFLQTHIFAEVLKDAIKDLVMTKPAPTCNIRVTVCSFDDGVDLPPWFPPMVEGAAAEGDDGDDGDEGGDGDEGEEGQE
Chain of Cytochrome P450 2C9 (P11712 whole entry): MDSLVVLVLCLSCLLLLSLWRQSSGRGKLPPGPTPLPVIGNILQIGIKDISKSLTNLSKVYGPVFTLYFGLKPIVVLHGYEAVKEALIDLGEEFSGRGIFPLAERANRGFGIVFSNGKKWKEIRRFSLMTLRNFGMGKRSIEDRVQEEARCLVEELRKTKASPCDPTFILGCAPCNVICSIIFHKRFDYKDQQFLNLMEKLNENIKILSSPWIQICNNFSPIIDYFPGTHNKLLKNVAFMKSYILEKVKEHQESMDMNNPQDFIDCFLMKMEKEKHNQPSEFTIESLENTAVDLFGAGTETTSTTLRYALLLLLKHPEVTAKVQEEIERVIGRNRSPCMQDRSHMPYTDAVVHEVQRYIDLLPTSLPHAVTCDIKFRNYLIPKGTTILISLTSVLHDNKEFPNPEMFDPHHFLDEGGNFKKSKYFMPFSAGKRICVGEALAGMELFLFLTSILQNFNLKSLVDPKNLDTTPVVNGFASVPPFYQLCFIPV
Chain of FAD-linked sulfhydryl oxidase ALR (P55789 whole entry): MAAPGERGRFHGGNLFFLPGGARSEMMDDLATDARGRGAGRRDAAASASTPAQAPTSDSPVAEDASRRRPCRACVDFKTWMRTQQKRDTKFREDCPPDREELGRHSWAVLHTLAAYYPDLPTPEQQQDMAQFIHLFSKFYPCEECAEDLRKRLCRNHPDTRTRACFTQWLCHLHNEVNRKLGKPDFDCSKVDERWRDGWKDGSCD
Chain of Long-chain-fatty-acid--AMP ligase FadD28 (P9WQ59 whole entry): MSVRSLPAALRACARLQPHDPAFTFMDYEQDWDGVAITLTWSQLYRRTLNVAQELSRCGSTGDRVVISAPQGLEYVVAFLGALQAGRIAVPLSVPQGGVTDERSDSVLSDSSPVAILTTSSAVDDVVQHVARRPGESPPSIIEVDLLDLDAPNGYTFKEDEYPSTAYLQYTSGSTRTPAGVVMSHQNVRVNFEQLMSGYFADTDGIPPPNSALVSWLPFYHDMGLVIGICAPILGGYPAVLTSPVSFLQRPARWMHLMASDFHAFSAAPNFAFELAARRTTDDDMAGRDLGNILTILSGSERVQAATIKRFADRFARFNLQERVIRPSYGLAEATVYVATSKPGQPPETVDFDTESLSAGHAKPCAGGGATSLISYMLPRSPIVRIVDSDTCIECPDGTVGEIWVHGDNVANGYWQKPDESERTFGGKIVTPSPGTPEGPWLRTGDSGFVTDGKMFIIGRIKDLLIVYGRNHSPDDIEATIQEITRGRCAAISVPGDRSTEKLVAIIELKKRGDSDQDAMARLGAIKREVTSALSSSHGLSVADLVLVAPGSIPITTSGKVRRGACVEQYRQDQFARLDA
Chain of Lytic switch protein BZLF1 (P03206 whole entry): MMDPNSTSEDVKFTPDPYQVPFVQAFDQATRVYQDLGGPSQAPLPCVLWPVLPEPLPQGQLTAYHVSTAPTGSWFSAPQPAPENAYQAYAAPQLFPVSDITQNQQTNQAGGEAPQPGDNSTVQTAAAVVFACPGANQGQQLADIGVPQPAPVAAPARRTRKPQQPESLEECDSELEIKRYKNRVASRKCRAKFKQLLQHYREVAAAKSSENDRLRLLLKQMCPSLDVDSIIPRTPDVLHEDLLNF
Chain of Disintegrin and metalloproteinase domain-containing protein 17 (P78536 whole entry, the tested form may be a part): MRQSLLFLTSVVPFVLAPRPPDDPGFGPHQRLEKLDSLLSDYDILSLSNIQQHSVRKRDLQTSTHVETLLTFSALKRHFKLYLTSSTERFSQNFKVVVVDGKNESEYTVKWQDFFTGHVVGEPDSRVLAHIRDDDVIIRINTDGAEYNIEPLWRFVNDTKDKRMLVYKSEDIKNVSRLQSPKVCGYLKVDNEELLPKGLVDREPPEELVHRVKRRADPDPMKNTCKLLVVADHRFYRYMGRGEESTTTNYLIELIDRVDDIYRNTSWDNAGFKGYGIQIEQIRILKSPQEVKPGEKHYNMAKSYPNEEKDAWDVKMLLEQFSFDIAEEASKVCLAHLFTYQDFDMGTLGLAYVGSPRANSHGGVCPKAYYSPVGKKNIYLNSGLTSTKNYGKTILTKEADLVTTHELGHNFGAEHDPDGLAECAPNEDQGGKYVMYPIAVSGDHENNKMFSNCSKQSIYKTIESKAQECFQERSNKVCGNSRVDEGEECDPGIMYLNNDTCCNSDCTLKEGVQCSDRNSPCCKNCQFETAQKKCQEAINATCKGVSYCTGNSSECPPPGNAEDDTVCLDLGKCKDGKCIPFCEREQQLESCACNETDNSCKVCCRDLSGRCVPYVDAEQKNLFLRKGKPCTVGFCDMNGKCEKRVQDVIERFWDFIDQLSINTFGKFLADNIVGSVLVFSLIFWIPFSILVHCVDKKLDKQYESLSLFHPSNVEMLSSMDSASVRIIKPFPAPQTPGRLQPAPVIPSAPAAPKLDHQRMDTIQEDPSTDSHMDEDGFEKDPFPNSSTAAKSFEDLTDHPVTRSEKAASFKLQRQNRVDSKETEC

For orientation: CC50 means the concentration giving 50% cytotoxicity. For the compound `CC1C/C(=C/c2ccccn2)C(=O)/C(=C/c2ccccn2)C1` (centres undefined), the CC50 in the data set on HeLa is on record as > 1.22 µM (not active).
The term AC50 denotes the midpoint of the concentration-response curve, whichever way the signal moves. For orientation: IC50 means the concentration at which inhibition is half-maximal. For `CCCCC(=O)NNC(=S)NC(=O)c1cccc([N+](=O)[O-])c1`, the AC50 entry at Cytochrome P450 3A4 was “inconclusive”; on Cytochrome P450 1A2 it was 22.4 µM (inconclusive); on Cytochrome P450 2C19, 15.8 µM (inconclusive). The IC50 is > 50 µM (not active) in data set [1] and 49.1 µM (active) at Leucine aminopeptidase.
For the compound `CCc1nnc(NC(=O)CSc2nc3cc4c(cc3cc2C)OCCO4)s1`, the results for the IC50 in [2] and in [3] were > 111 µM (not active) and 5.82 µM (active), respectively. For the same compound, the values for the AC50 at Cytochrome P450 2C9, at Cytochrome P450 1A2 and on Cytochrome P450 2C19 were 0.398 µM (inconclusive), 1.58 µM (inconclusive) and 6.31 µM (inconclusive), respectively.
In the case of `C=C(C)COc1ccc(-c2n[nH]cc2Oc2cccc(OC)c2)c(O)c1`, the IC50 in data set [4] was > 20 µM (inactive); in data set [6] it was > 69.5 µM (inactive); in [7] it was 7.92 µM (not active). For the same compound, the EC50 was 10 µM (active) in the data set with Streptococcus; 7.54 µM (active) in [5]; > 150 µM (not active) at Streptokinase A; 8.77 µM (active) in data set [8]; 8.18 µM (active) in data set [10]. In data set [9], the AC50 was 7.54 µM (active).
For the compound `O=C(NN/C=C1\C(=O)N(c2ccc(Cl)cn2)C(=O)c2ccccc21)c1ccncc1`, the results for the AC50 in [11] and in data set [12] were > 100 µM (inactive) and 5.43 µM (active), respectively. In addition, the EC50 in [13] was > 100 µM (active); in data set [14], 6.13 µM (active).
